Measurements taken from ChEMBL document CHEMBL4368940, “Development of a novel NURR1/NOT agonist from hit to lead and candidate for the potential treatment of Parkinson's disease” (Bioorg Med Chem Lett, 2019).

How the values were obtained:
[1] = biological target: Nuclear receptor subfamily 4 group A member 2 (Homo sapiens, UniProt P43354); assay: Agonist activity at full-length Gal4-fused NOT (unknown origin) expressed in CHO cells by luciferase reporter gene assay; format: cell-based
[2] = biological target: Nuclear receptor subfamily 4 group A member 2 (Mus musculus) (UniProt Q06219); assay: (§1) Agonist activity at Nurr1 in mouse N2A cells harboring NBRE by luciferase reporter gene assay; format: cell-based
Sequence of Nuclear receptor subfamily 4 group A member 2 (Mus musculus) (Q06219 whole entry): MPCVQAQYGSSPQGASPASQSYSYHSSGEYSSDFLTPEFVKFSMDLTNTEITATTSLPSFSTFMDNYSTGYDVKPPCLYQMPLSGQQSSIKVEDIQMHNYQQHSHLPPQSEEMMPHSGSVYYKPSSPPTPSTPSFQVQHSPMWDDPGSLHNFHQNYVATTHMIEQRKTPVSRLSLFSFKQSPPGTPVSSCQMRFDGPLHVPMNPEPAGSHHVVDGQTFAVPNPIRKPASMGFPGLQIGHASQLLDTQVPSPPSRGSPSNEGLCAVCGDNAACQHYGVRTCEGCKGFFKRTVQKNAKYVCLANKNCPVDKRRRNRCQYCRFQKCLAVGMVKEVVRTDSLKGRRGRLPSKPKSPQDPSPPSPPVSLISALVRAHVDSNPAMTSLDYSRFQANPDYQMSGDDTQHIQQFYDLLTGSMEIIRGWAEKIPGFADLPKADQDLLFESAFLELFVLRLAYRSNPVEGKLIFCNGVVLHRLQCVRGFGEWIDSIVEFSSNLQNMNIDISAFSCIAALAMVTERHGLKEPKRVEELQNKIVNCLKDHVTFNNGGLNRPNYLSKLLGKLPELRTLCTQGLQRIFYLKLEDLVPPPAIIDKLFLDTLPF

Cytochrome P450 3A4 = Cytochrome P450 3A4 (Homo sapiens, UniProt P08684); assay: Inhibition of CYP3A4 (unknown origin); format: ADME
Sequence of Cytochrome P450 3A4 (P08684 whole entry): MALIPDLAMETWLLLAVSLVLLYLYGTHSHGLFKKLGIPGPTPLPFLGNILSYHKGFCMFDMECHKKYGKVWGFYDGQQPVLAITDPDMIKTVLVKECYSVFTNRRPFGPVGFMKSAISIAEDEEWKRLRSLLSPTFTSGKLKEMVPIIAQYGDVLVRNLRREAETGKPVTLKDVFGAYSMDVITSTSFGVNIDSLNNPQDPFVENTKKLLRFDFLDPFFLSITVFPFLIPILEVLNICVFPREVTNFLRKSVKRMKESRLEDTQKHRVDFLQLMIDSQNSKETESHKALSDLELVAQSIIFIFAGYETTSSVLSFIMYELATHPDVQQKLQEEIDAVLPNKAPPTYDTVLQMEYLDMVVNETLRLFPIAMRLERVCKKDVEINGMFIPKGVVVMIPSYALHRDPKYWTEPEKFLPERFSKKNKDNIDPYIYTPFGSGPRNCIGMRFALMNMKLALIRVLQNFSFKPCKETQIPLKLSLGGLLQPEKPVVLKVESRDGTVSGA

[3] = Clearance in human hepatocytes assessed per million cells; format: ADME, cell-based, Hepatocyte
[4] = Drug metabolism in human liver microsomes; format: ADME, Microsome; settings: read-out: Drug metabolism
[5] = Drug metabolism in mouse liver microsomes; format: ADME, Microsome; settings: read-out: Drug metabolism
[6] = Apparent permeability in human Caco2 cells; format: ADME, cell-based; settings: caco-2
[7] = Lipophilicity, log D of the compound; format: physicochemical; settings: octanol/water
[8] = biological target: Nuclear receptor subfamily 4 group A member 2 (Mus musculus) (UniProt Q06219); assay: Agonist activity at Nurr1 in mouse MG7 cells assessed as inhibition of LPS-induced IL1beta secretion at 3 uM; format: cell-based
[9] = Stability in human plasma; format: ADME, cell-free
[10] = biological target: Nuclear receptor subfamily 4 group A member 2 (Mus musculus) (UniProt Q06219); assay: Agonist activity at Nurr1 in co-culture of mouse primary neurons and microglia assessed as inhibition of LPS-induced neurotoxicity by measuring neuroprotection at 10 uM; design: scale not given: the % may be the effect or the level left
Cytochrome P450 2D6 = Cytochrome P450 2D6 (Homo sapiens, UniProt P10635); assay: Inhibition of CYP2D6 (unknown origin); format: ADME
Sequence of Cytochrome P450 2D6 (P10635 whole entry): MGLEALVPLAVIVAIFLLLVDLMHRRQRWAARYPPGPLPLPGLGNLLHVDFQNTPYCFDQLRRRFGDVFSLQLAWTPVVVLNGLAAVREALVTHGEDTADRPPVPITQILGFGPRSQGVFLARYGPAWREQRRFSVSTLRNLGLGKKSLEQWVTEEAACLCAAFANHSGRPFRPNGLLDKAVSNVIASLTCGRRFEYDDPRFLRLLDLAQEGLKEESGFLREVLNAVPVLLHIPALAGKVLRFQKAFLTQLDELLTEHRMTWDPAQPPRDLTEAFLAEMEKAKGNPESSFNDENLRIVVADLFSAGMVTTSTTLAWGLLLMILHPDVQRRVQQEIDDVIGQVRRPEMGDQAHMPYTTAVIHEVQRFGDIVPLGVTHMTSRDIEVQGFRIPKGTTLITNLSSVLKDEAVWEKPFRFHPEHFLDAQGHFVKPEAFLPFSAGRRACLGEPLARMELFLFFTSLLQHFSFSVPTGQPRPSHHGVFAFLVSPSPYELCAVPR

[11] = Solubility of the compound by HPLC analysis; format: physicochemical
[12] = Genotoxicity in Salmonella typhimurium by Ames test; format: toxicity; settings: salmonella enterica subsp. enterica serovar typhimurium
Cytochrome P450 2C9 = Cytochrome P450 2C9 (Homo sapiens, UniProt P11712); assay: Inhibition of CYP2C9 (unknown origin); format: ADME
Sequence of Cytochrome P450 2C9 (P11712 whole entry): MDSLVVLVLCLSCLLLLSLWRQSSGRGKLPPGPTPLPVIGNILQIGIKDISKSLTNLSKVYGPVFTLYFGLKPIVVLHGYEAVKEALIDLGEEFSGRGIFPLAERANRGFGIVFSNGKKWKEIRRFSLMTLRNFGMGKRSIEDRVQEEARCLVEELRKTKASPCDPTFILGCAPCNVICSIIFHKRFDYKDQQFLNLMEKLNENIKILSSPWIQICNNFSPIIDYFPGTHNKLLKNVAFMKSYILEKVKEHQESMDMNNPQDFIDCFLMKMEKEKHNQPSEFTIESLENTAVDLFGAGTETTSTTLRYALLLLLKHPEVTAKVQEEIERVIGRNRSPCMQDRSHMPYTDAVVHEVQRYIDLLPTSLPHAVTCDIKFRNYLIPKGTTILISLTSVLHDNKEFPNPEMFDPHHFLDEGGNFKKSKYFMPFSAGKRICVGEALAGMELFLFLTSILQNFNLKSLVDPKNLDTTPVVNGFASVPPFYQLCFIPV

[13] = biological target: Voltage-gated inwardly rectifying potassium channel KCNH2 (Homo sapiens, UniProt Q12809); assay: Activation of human ERG
Sequence of Voltage-gated inwardly rectifying potassium channel KCNH2 (Q12809 whole entry): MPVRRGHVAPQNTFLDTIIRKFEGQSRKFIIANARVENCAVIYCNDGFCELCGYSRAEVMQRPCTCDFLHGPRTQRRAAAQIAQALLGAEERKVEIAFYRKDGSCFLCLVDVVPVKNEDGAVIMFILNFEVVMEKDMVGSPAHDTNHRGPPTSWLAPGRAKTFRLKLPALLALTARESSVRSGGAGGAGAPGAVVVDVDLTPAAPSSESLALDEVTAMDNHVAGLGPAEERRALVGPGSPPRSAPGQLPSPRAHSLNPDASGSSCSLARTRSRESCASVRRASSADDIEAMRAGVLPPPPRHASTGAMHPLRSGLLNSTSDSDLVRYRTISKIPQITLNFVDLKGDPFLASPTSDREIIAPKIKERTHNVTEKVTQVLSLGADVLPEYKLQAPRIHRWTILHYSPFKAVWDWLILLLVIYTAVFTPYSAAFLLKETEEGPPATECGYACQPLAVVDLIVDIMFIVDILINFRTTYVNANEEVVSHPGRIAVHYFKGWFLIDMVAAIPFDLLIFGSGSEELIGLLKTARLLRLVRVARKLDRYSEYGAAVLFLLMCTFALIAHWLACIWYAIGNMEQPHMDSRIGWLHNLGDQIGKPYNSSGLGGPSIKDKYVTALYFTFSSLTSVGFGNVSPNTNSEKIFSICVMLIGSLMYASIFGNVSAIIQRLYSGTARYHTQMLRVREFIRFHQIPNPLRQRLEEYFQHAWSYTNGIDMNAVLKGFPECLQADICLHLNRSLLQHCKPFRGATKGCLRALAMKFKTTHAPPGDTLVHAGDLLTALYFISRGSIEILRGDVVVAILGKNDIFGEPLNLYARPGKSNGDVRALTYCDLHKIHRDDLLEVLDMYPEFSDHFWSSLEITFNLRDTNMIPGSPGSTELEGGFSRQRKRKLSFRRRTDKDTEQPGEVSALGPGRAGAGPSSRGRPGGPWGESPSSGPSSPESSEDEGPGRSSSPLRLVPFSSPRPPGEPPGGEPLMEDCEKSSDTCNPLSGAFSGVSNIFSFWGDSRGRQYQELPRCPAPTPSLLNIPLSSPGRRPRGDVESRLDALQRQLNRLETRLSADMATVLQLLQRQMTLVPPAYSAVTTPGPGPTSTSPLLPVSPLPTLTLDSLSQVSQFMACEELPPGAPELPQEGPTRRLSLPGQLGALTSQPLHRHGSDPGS

CYP450 = CYP450 (Homo sapiens, UniProt P04798+P05177+P05181+P08684+P10632+P10635+P11509+P11712+P13584+P20813+P20815+P20853+P24462+P24903+P33260+P33261+P51589+P78329+P98187+Q02928+Q08477+Q16678+Q16696+Q5TCH4+Q6VVX0+Q7Z449+Q8TAV3+Q96SQ9+Q9HB55); assay: Induction of CYP450 (unknown origin); format: ADME, protein assay
[14] = Stability in mouse plasma; format: ADME, cell-free
[15] = biological target: Nuclear receptor subfamily 4 group A member 2 (Mus musculus, UniProt Q06219); assay: as §1; format: cell-based
Sequence of Nuclear receptor subfamily 4 group A member 2 (Mus musculus, UniProt Q06219) (Q06219 whole entry): as the sequence (Q06219 whole entry) above

[16] = biological target: Nuclear receptor subfamily 4 group A member 2 (Rattus norvegicus) (UniProt Q07917); assay: Agonist activity at Nurr1 in rat mesencephalic primary neurons assessed as increase in tyrosine hydroxylase expression at 3 uM
Sequence of Nuclear receptor subfamily 4 group A member 2 (Rattus norvegicus) (Q07917 whole entry): as the sequence (Q06219 whole entry) above, with S134G, P182R counted along it

[17] = biological target: Nuclear receptor subfamily 4 group A member 2 (Mus musculus) (UniProt Q06219); assay: Agonist activity at Nurr1 in co-culture of mouse primary neurons and microglia assessed as inhibition of LPS-induced neurotoxicity by measuring neuroprotection at 3 uM; design: scale not given: the % may be the effect or the level left
[18] = Dissociation constant, pKa of the compound; format: physicochemical
[19] = Drug metabolism in human hepatocytes assessed as 3-(2-(4-chlorophenyl)imidazo[1,2-a]pyridin-6-yl)benzoic acid formation; format: ADME, cell-based, Hepatocyte
[20] = Drug metabolism in mouse liver microsomes assessed as amide hydrolysis by measuring aniline formation; format: ADME, Microsome
[21] = Drug metabolism in mouse liver microsomes assessed as amide hydrolysis by measuring 6-(pyridin-2-yl)imidazo[1,2-a]pyridine-2-carboxylic acid formation; format: ADME, Microsome
[22] = Drug level in mouse liver microsomes treated with N-phenyl-6-(pyridin-2-yl)imidazo[1,2-a]pyridine-2-carboxamide assessed as metabolite formation; format: ADME, Microsome
[23] = Drug level in human hepatocytes treated with (3-(2-(4-chlorophenyl)imidazo[1,2-a]pyridin-6-yl)phenyl)methanol; format: ADME, cell-based, Hepatocyte
hERG = hERG (Homo sapiens, UniProt Q12809); assay: Inhibition of human ERG at 10 uM
Sequence of hERG (Q12809 whole entry): as the sequence (Q12809 whole entry) above

Sequence of Nuclear receptor subfamily 4 group A member 2 (Homo sapiens, UniProt P43354) (P43354 whole entry, the tested form may be a part): as the sequence (Q06219 whole entry) above, with S131T, S134G, D354E counted along it

O=C(Nc1nccs1)c1cn2cc(-c3ccccn3)ccc2n1
EC50 ([1]; read-out: EC50): > 1 µM
Emax [2]: 72%

OCc1cccc(-c2ccc3nc(-c4ccc(Cl)cc4)cn3c2)c1
Emax [1]: 239%
EC50 ([1]; read-out: EC50): 0.045 to 0.075 µM
IC50 (Cytochrome P450 3A4): > 10 µM
CLH [3]: 0.42 mL/h
metabolised [4]: 22%
metabolised [5]: 8%
permeability [6]: Permeable
logD [7]: 2.95
inhibition [8]: 58%
Stability [9]: Stable
Activity [10]: 65%
IC50 (Cytochrome P450 2D6): > 10 µM
solubility [11]: < 1 µM
Activity [12]: Non-Toxic
IC50 (Cytochrome P450 2C9): 8.6 µM
EC50 [13]: 0.9 µM
Emax (CYP450): < 20%
Stability [14]: Stable
Emax [2]: 240%
EC50 [15]: 0.001 µM
Activity [16]: 188 to 313%
Activity [17]: 37%
pKa [18]: 5.16
Drug metabolism [19]: Metabolite_Detected

CCC(C)C(O)c1cccc(-c2ccc3nc(-c4ccc(Cl)cc4)cn3c2)c1 (configuration not stated)
EC50 ([1]; read-out: EC50): > 3 µM

O=C(Nc1ccccc1F)c1cn2cc(-c3ccccn3)ccc2n1
EC50 ([1]; read-out: EC50): > 1 µM
Emax [2]: 104%
EC50 [15]: 0.001 µM

O=C(Nc1ccccc1Cl)c1cn2cc(-c3ccccn3)ccc2n1
EC50 ([1]; read-out: EC50): > 1 µM
Emax [2]: 68%
EC50 [15]: 0.0265 µM

O=C(Nc1ccccc1)c1cn2cc(-c3ccccn3)ccc2n1
Emax [1]: 203%
EC50 ([1]; read-out: EC50): 0.14 µM
IC50 (Cytochrome P450 3A4): > 10 µM
CLH [3]: 0.128 mL/h
metabolised [4]: 20%
metabolised [5]: 21%
Drug metabolism [20]: Metabolite_Detected
permeability [6]: Permeable
logD [7]: 3.65
Stability [9]: Stable
Drug metabolism [21]: Metabolite_Detected
IC50 (Cytochrome P450 2D6): > 10 µM
solubility [11]: < 1 µM
Activity [12]: Non-Toxic
IC50 (Cytochrome P450 2C9): 8.6 µM
EC50 [13]: > 10 µM
Emax (CYP450): < 20%
Stability [14]: Unstable
Emax [2]: 204%
EC50 [15]: 0.001 µM
Activity [16]: 174 to 216%
pKa [18]: 3.6

OC1(c2cccc(-c3ccc4nc(-c5ccc(Cl)cc5)cn4c3)c2)CCOCC1
EC50 ([1]; read-out: EC50): > 1 µM

O=C(Nc1ccon1)c1cn2cc(-c3ccccn3)ccc2n1
EC50 ([1]; read-out: EC50): > 1 µM
Emax [2]: 62%
EC50 [15]: 0.02 µM

CNC(=O)c1cccc(-c2ccc3nc(-c4ccc(Cl)cc4)cn3c2)c1
Emax [1]: 226%

Nc1ccccc1 [ANILINE]
Drug metabolism [22]: Metabolite_Detected

CCCCC(O)c1cccc(-c2ccc3nc(-c4ccc(Cl)cc4)cn3c2)c1 (configuration not stated)
EC50 ([1]; read-out: EC50): > 3 µM

O=C(Nc1cccc(F)n1)c1cn2cc(-c3ccccn3)ccc2n1
Emax [1]: 138%
EC50 ([1]; read-out: EC50): 0.025 µM
Emax [2]: 86%
EC50 [15]: 0.0006 µM

Clc1ccc(-c2cn3cc(-c4cccc(CN5CCOCC5)c4)ccc3n2)cc1
EC50 ([1]; read-out: EC50): > 3 µM

COCc1cccc(-c2ccc3nc(-c4ccc(Cl)cc4)cn3c2)c1
EC50 ([1]; read-out: EC50): > 3 µM

O=C(Nc1nncs1)c1cn2cc(-c3ccccn3)ccc2n1
EC50 ([1]; read-out: EC50): > 1 µM
Emax [2]: 70%
EC50 [15]: 0.0676 µM

O=C(O)c1cn2cc(-c3ccccn3)ccc2n1
Drug metabolism [22]: Metabolite_Detected

CCC(O)c1cccc(-c2ccc3nc(-c4ccc(Cl)cc4)cn3c2)c1 (configuration not stated)
EC50 ([1]; read-out: EC50): > 1 µM

O=C(O)c1cccc(-c2ccc3nc(-c4ccc(Cl)cc4)cn3c2)c1
Drug metabolism [23]: Metabolite_Detected

OC1(c2cccc(-c3ccc4nc(-c5ccc(Cl)cc5)cn4c3)c2)COC1
EC50 ([1]; read-out: EC50): 0.323 µM

O=C(Nc1ccccn1)c1cn2cc(-c3ccccn3)ccc2n1
EC50 ([1]; read-out: EC50): > 1 µM
Emax [2]: 87%
EC50 [15]: 0.002 µM

O=C(Nc1ccsc1)c1cn2cc(-c3ccccn3)ccc2n1
EC50 ([1]; read-out: EC50): > 1 µM
Emax [2]: 85%
EC50 [15]: 0.001 µM

CC(O)(CO)c1cccc(-c2ccc3nc(-c4ccc(Cl)cc4)cn3c2)c1 (configuration not stated)
EC50 ([1]; read-out: EC50): > 1 µM

OC(c1cccc(-c2ccc3nc(-c4ccc(Cl)cc4)cn3c2)c1)C1CCCC1 (configuration not stated)
EC50 ([1]; read-out: EC50): > 3 µM

CC(C)(O)c1c(F)ccc(-c2ccc3nc(-c4ccc(Cl)cc4)cn3c2)c1F
EC50 ([1]; read-out: EC50): > 1 µM
inhibition at 10 µM (hERG): 70%

OCc1cccc(-c2cn3cc(-c4ccc(Cl)cc4)nc3cn2)c1
EC50 ([1]; cho): Not Active

CN(C)Cc1cccc(-c2ccc3nc(-c4ccc(Cl)cc4)cn3c2)c1
EC50 ([1]; read-out: EC50): > 3 µM
